Legend:
A549 cells = test: Cell-based assay: anti-proliferative activity, Cell Counting Kit-8, 72 hours (A549); details: Homo sapiens, A549, 72 h, 72 hours
Procedure, shortened: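 A549 cells seeded in 96-well plates and exposed to candidate inhibitors for 72 hours. Growth measured with Cell Counting Kit-8; IC50 values calculated from the dose response.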

T47D cells = test: Cell-based assay: anti-proliferative activity, Cell Counting Kit-8, 72 hours (T47D); details: Homo sapiens, T47D, 72 h
Procedure, shortened: (§1)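 IC50 values come from CCK-8 growth measurements taken 72 hours post-treatment of plated cells with test compounds. Expression of MELK across the panel was assessed through immunoblot of unfractionated lysates.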

DU4475 cells [1] = test: Cell-based assay: anti-proliferative activity, Cell Counting Kit-8, 72 hours (DU4475); details: Homo sapiens, DU-4475, 72 h
MELK = MELK (Homo sapiens, UniProt Q14680); test: Kinase assay: MELK activity, phosphorylation of FITC-labeled histone H3 peptide measured by IMAP fluorescence polarization; type: biochemical; details: read-out: IC50 (μM) (kinase assay)
Sequence of MELK (Q14680 whole entry, looked up): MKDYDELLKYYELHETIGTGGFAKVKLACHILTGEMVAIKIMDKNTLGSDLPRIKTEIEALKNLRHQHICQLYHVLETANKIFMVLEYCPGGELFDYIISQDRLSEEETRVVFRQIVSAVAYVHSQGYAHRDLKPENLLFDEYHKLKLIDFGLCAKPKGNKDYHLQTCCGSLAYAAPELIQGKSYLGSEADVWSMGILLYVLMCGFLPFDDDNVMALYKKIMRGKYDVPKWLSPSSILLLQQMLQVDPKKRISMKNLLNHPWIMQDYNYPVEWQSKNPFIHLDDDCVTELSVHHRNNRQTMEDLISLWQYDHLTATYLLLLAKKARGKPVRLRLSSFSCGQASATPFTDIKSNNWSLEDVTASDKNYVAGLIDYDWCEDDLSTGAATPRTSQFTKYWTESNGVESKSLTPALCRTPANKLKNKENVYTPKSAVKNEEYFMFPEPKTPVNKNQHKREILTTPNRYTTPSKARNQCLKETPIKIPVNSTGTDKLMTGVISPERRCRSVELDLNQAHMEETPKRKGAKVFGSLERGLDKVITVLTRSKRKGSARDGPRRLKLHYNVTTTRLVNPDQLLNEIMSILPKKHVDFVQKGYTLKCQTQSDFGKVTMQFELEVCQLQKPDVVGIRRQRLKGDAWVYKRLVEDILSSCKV
Procedure, shortened: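 Substrate is FITC-labeled histone H3 peptide. Compounds come from a 12.5 mM DMSO stock, diluted so assay DMSO is 1%. The stop step adds threefold-volume progressive binding solution, followed by 0.5 h at room temperature and an FP read.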

HT-1197 cells = test: Cell-based assay: anti-proliferative activity, Cell Counting Kit-8, 72 hours (HT-1197, negative control without MELK expression); details: Homo sapiens, HT1197, 72 h, 72 hours
Procedure, shortened: as §1

DU4475 cells [2] = test: Cell-based assay: anti-proliferative activity, Cell Counting Kit-8, 72 hours (DU4475); details: Homo sapiens, DU-4475, 72 h; remark: listed apart in the source
[3] = HT1197 cells (negative control)
[4] = HT1197 cells (negative control, no MELK expression)

| Structure (SMILES) | IC50 (A549 cells) [µM] | IC50 (T47D cells) [µM] | IC50 (DU4475 cells [1]) [µM] | IC50 (MELK) [µM] | IC50 (HT-1197 cells; [3]) [µM] | IC50 (DU4475 cells [2]) [µM] | IC50 (HT-1197 cells; [4]) [µM] |
| --- | --- | --- | --- | --- | --- | --- | --- |
| COc1cc(-c2ccc3ncc(C(=O)C4CC4)c(N4CCN(C)CC4)c3c2)cc(Cl)c1O [Example 533, (6-(3-chloro-4-hydroxy-5-methoxyphenyl)-4-(4-methylpiperazin-1-yl)quinolin-3-yl)(cyclopropyl)methanone] | 0.26 | 0.48 | 0.4 | 0.0088 | 2.6 | – | – |
| O=C(c1cnc2ccc(-c3cc(Cl)c(O)c(Cl)c3)cc2c1N[C@H]1CC[C@H](CN2CCCC2)CC1)C1CC1 [Example 584, cyclopropyl(6-(3,5-dichloro-4-hydroxyphenyl)-4-((trans-4-(pyrrolidin-1-ylmethyl)cyclohexyl)amino)quinolin-3-yl)methanone] | 0.071 | 0.13 | 0.053 | 0.0016 | 0.86 | – | – |
| CN(C)CCc1ccc(Nc2c(C(=O)C3CC3)cnc3ccc(-c4cc(F)c(O)c(Cl)c4)cc23)cc1 [Example 615, (6-(3-chloro-5-fluoro-4-hydroxyphenyl)-4-(4-(2-(dimethylamino)ethyl)phenylamino)quinolin-3-yl)(cyclopropyl)methanone] | 0.086 | 0.17 | 0.042 | 0.0082 | 1.4 | – | – |
| CC(=O)c1cnc2ccc(-c3cc(F)c(O)c(Cl)c3)cc2c1Nc1cnc(N2CCNCC2)nc1 [Example 594, 1-(6-(3-chloro-5-fluoro-4-hydroxyphenyl)-4-(2-(piperazin-1-yl)pyrimidin-5-ylamino)quinolin-3-yl)ethanone] | 0.063 | 0.025 | 0.048 | 0.0048 | 0.66 | – | – |
| CN1CCN(C[C@H]2CC[C@H](Nc3c(C(=O)C4CC4)cnc4ccc(-c5cc(Cl)c(O)c(Cl)c5)cc34)CC2)CC1 [Example 618] | 0.21 | 0.23 | 0.12 | – | 2.3 | – | – |
| O=C(c1cnc2ccc(-c3cc(Cl)c(O)c(Cl)c3)cc2c1Nc1ccc(NC2CCNC2)nc1)C1CC1 (centres unmarked) [Example 666, cyclopropyl(6-(3,5-dichloro-4-hydroxyphenyl)-4-(6-(pyrrolidin-3-ylamino)pyridin-3-ylamino)quinolin-3-yl)methanone] | 10 | 0.34 | – | 0.024 | – | 0.071 | 10 |
| CN(C)CCOc1ccc(Nc2c(C(=O)C3CC3)cnc3ccc(-c4cc(F)c(O)c(Cl)c4)cc23)cn1 [Example 710, (6-(3-Chloro-5-fluoro-4-hydroxyphenyl)-4-(6-(2-(dimethylamino)ethoxy)pyridin-3-ylamino)quinolin-3-yl)(cyclopropyl)methanone] | 0.09 | 0.15 | – | 0.0069 | – | 0.083 | 2 |
| CCC(=O)c1cnc2ccc(-c3cc(Cl)c(O)c(Cl)c3)cc2c1Nc1ccc(N2CCN(C)CC2)nc1 [Example 737, 1-(6-(3,5-dichloro-4-hydroxyphenyl)-4-(6-(4-methylpiperazin-1-yl)pyridin-3-ylamino)quinolin-3-yl)propan-1-one] | 0.29 | 0.31 | – | 0.055 | – | 0.27 | 10 |
| COc1cc(-c2ccc3ncc(C(C)=O)c(N[C@H]4CC[C@H](CN5CCCC5)CC4)c3c2)cc(Cl)c1O [Example 734] | 0.25 | 0.51 | – | 0.0016 | – | 0.36 | 6.4 |
| COc1cc(-c2ccc3ncc(C(=O)C4CC4)c(NC4CCC(N5CCC(OC)C5)CC4)c3c2)cc(Cl)c1O (centres unmarked) [Example 687, (6-(3-chloro-4-hydroxy-5-methoxyphenyl)-4-(4-(3-methoxypyrrolidin-1-yl)cyclohexylamino)quinolin-3-yl)(cyclopropyl)methanone] | 0.45 | 0.63 | – | 0.0033 | – | 0.33 | 3.3 |
| COc1cc(-c2ccc3ncc(C(=O)C4CC4)c(Nc4ccc(OCCN(C)C)nc4)c3c2)cc(Cl)c1O [Example 712, (6-(3-chloro-4-hydroxy-5-methoxyphenyl)-4-(6-(2-(dimethylamino)ethoxy)pyridin-3-ylamino)quinolin-3-yl)(cyclopropyl)methanone] | 0.31 | 0.31 | – | 0.0036 | – | 0.34 | 5.4 |
| CN(C)CCOc1ccc(Nc2c(C(=O)C3CC3)cnc3ccc(-c4cc(Cl)c(O)c(Cl)c4)cc23)cn1 [Example 711, Cyclopropyl(6-(3,5-dichloro-4-hydroxyphenyl)-4-(6-(2-(dimethylamino)ethoxy)pyridin-3-ylamino)quinolin-3-yl)methanone] | 0.11 | 0.22 | – | 0.0032 | – | 0.073 | 5.7 |
| CC(=O)c1cnc2ccc(-c3cc(F)c(O)c(Cl)c3)cc2c1N[C@H]1CC[C@H](CN2CCCC2)CC1 [Example 731] | 0.17 | 0.11 | – | 0.0047 | – | 0.13 | 1.3 |
| COc1cc(-c2ccc3ncc(C(C)=O)c(Nc4ccc(N5CCCC(N)C5)nc4)c3c2)cc(Cl)c1O (centres unmarked) [Example 688, 1-(4-(6-(3-aminopiperidin-1-yl)pyridin-3-ylamino)-6-(3-chloro-4-hydroxy-5-methoxyphenyl)quinolin-3-yl)ethanone] | 0.23 | 0.056 | – | 0.0032 | – | 0.11 | 1.7 |
| O=C(c1cnc2ccc(-c3cc(Cl)c(O)c(Cl)c3)cc2c1NC1CCNCC1)C1CC1 [Example 726, cyclopropyl(6-(3,5-dichloro-4-hydroxypheny)-4-(piperidin-4-ylamino)quinolin-3-yl)methanone] | 0.52 | 0.56 | – | 0.0057 | – | 0.14 | 2.4 |
| CC(=O)c1cnc2ccc(-c3cc(F)c(O)c(Cl)c3)cc2c1Nc1ccc(CN2CCN(C)CC2)cc1 [Example 656, 1-(6-(3-chloro-5-fluoro-4-hydroxyphenyl)-4-(4-((4-methylpiperazin-1-yl)methyl)phenylamino)quinolin-3-yl)ethanone] | 0.41 | 0.19 | – | 0.033 | – | 0.27 | 6.1 |
| CN(C)CCc1cccc(Nc2c(C(=O)C3CC3)cnc3ccc(-c4cc(F)c(O)c(Cl)c4)cc23)c1 [Example 693, {6-(3-Chloro-5-fluoro-4-hydroxyphenyl)-4-[3-(2-(dimethylamino)ethyl)phenylamino]quinolin-3-yl}(cyclopropyl)methanone] | 0.09 | 0.37 | – | 0.0083 | – | 0.085 | 10 |
| CN(C)C1CCN(c2ccc(Nc3c(C(=O)C4CC4)cnc4ccc(-c5cc(Cl)c(O)c(Cl)c5)cc34)cn2)C1 (centres unmarked) [Example 690, cyclopropyl(6-(3,5-dichloro-4-hydroxyphenyl)-4-(6-(3-(dimethylamino)pyrrolidin-1-yl)pyridin-3-ylamino)quinolin-3-yl)methanone] | 0.3 | 0.25 | – | 0.0047 | – | 0.19 | 4 |
| O=C(c1cnc2ccc(-c3cc(F)c(O)c(Cl)c3)cc2c1NC1CCC(N2CC[C@@H](F)C2)CC1)C1CC1 (stereo partly drawn) [Example 642, (R)-(6-(3-chloro-5-fluoro-4-hydroxyphenyl)-4-(4-(3-fluoropyrrolidin-1-yl)cyclohexylamino)quinolin-3-yl)(cyclopropyl)methanone] | 0.2 | 0.17 | – | 0.0075 | – | 0.11 | 0.76 |
| CC(=O)c1cnc2ccc(-c3cc(Cl)c(O)c(Cl)c3)cc2c1Nc1cccc(CCN(C)C)c1 [Example 729, 1-{6-(3,5-Dichloro-4-hydroxyphenyl)-4-[3-(2-(dimethylamino)ethyl)phenylamino]quinolin-3-yl}ethanone] | 0.2 | 0.52 | – | 0.0022 | – | 0.1 | 10 |
| CC(=O)c1cnc2ccc(-c3cc(F)c(O)c(Cl)c3)cc2c1Nc1ccc(CCN(C)C)cc1 [Example 745, 1-(6-(3-chloro-5-fluoro-4-hydroxyphenyl)-4-(4-(2-(dimethylamino)ethyl)phenylamino)quinolin-3-yl)ethanone] | 0.16 | 0.12 | – | 0.0083 | – | 0.063 | 0.99 |
| CC(=O)c1cnc2ccc(-c3cc(Cl)c(O)c(Cl)c3)cc2c1Nc1ccc2c(c1)CCC2N(C)C (centres unmarked) [Example 720, 1-(6-(3,5-dichloro-4-hydroxyphenyl)-4-((1-(dimethylamino)-2,3-dihydro-1H-inden-5-yl)amino)quinolin-3-yl)ethanone] | 0.063 | 0.059 | – | 0.0033 | – | 0.032 | 0.38 |
| COC1CCN(C2CCC(Nc3c(C(=O)C4CC4)cnc4ccc(-c5cc(Cl)c(O)c(Cl)c5)cc34)CC2)C1 (centres unmarked) [Example 661, cyclopropyl(6-(3,5-dichloro-4-hydroxyphenyl)-4-(4-(3-methoxypyrrolidin-1-yl)cyclohexylamino)quinolin-3-yl)methanone] | 0.17 | 0.25 | – | 0.0018 | – | 0.1 | 1.4 |
| CCC(=O)c1cnc2ccc(-c3cc(Cl)c(O)c(OC)c3)cc2c1N[C@H]1CC[C@H](CN(C)C)CC1 [Example 713] | 0.18 | 0.2 | – | 0.0024 | – | 0.15 | 4.9 |

From US9120749B2, “Quinoline derivatives and MELK inhibitors containing the same” (ONCOTHERAPY SCIENCE, INC., priority 2010, dated 2015)
